We go through one molecule from paper PMC11783601, “Analogue-Sensitive Inhibition of Histone Demethylases Uncovers Member-Specific Function in Ribosomal Protein Synthesis” (Journal of the American Chemical Society, 2025).

The experiment has as its target T1, KDM6B (Homo sapiens, UniProt O15054).
T1 construct: The plasmid construct for the catalytic domain of wild type KDM6B; 6xHis (N); made in house; host or cells: E. coli Rosetta [DE3]
Kind of experiment: MALDI-based assay for KDM6B on H3K27me3 peptide. Format: biochemical. Conditions: MALDI-TOF. The method, then: (NH4)2Fe(SO4)2, 1 mM L-ascorbic acid, 1 mM NAD+, 200 nM FDH, and 1 µM KDM4A) in varying concentrations (0-10 µM). The experiments were performed in 384-well white Corning plates. The fluorescence intensity was measured with excitation = 340 nm and emission = 490 nm on a TECAN Infinite M1000Pro. Triplicate values were taken for each concentration.
The set up and analysis for IC50 of L-Leu NOG against KDM4A F185A enzyme was similar to that described in the coupled fluorescence assay section, but adjusted to function as an end point […]
2 mM L-ascorbic acid, 1 mM NAD+, 200 nM FDH, 3 µM wild type KDM4A or KDM4A-F185A, and varying concentration of compounds (NOGs 6, 9 and 10) and a substrate cocktail (200 µM 2OG and 60 µM H3K9me3 peptide). Different concentrations of NOG 6 were measured at one […]
For 9 and 10, the same set-up remained, but enzymatic activity was measured via MALDI-TOF analysis, and relative activity and inhibition was calculated for different NOG concentrations as described above. […]
equivalent volume of water in 10 µL aliquots. […] The sample was ionized with Bruker FlexControl in the reflectron positive mode and analyzed on Bruker FlexAnalysis software. The percent demethylated peptide was calculated by first multiplying the K27me1 peak by 2 and the K27me0 peak by 3 to account for the multiple […]
the reflectron positive mode and analyzed on Bruker FlexAnalysis software. […]

T1 sequence (O15054 1339-1502 limits assumed): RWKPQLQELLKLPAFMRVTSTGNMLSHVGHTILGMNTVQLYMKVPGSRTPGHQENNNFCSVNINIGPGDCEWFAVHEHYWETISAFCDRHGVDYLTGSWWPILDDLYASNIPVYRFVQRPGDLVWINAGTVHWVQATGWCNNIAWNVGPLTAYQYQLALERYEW

As for `CC(C)CC(NC(=O)C(=O)O)C(=O)O` (stereo not shown) [compound 6, N-oxalyl leucine], the “inhibition of KDM6B” value is “No inhibition”.
